Series [1] relates to Xanthomonas axonopodis pv. glycines. The following applies: for 1/(log(MICs (mM)), Xanthomonas axonopodis pv. glycines): from MIC, 0 where no detectable activity; for MIC, Xanthomonas axonopodis pv. glycines: serial 2-fold dilutions, 96-well, inoculum ~10^5 CFU/mL, highest 256 µg/mL, 48 h, OD600, NDA = Non-detectable activity. As to the method: MICs were determined using the M7-A6 protocol from the Clinical Laboratory Standards Institute (CLSI). […] Initial bacterium inoculum of ∼10^5 colony forming units/mL were transferred, along with serial 2-fold dilutions of each peptide to 96-well plates and incubated for 12 h. […] For each peptide concentration, optical density (OD600) readings were subtracted from that of the growth medium and divided by the positive control (100% bacterial growth). Inhibitory assays for X. axonopodis pv. glycines were conducted by the same methodology with longer incubation time (48 h).

Series [2] has as its system Phakopsora pachyrhizi spores. As to the kind of experiment: In situ germination inhibition of Phakopsora pachyrhizi spores on Glycine max leaves' surface. In kind it is cell-based. The settings on record: 8 µg/mL (3 µM) peptide co-incubated with 3.5×10^5/ml spores on G. max leaf disks, 7 days, 21°C; average of three experiments. As to the method:
P. pachyrhizi spores were scraped off infected G. max leaves and were frozen at −80°C. Prior to the in situ assay, spores were dissolved in Mili-Q® water, incubated at 40°C for 40 min and quantified using a Neubauer chamber. […]. BR-16). Spores were then co-incubated with fifty microliters of a peptide solution at concentrations ranging from 8 to 128 µg/mL. Leaves were immediately placed on a Petri dish containing moist filter papers and incubated at 21°C under 12 h-photoperiod and photographed after 7 days. Images were used to measure the infected area using the QUANT v1.0.1 software.

In series [3] the test system is Phakopsora pachyrhizi. The experiment in a line: Asian rust tolerance assay of transformed soybean plants. The format is in vivo, Phakopsora pachyrhizi on Glycine max. The following applies: sprayed with 10^6 spores/mL, 15 days, control plants 45±8. As to the method: The gene encoding the peptide gb|ABM17058.1|(213–231), primary structure […], was synthesized by Epoch Life Science Inc. (Sugar Land, TX, USA) and cloned into the vector pBluKSPOXDCAHAS replacing the oxdc gene. The vector was used to transform soybean plants as previously described, [31]. Six intragenic soybean lines were tested for tolerance to Asian rust (Phakopsora pachyrhizi). The plants (20 plants per line at V3 stage) were sprayed with a spore suspension (10^6 spores/mL) and maintained in the greenhouse at room temperature and sprinkling 4 times a day. Leaves were photographed after 15 days and the number of pustules per square centimeter counted.

The nature of series [4]: Far UV circular dichroism of peptides in buffer (MRE, α-helix percentage). The following applies: for [q]208 nm Buffer (Greenfield 69): Mean Residue Ellipticity at 208 nm; for [q]208 nm Buffer (Greenfield 69) / [q]222 nm Buffer (Chen 74): peptide in buffer, far UV CD; for [q]222 nm Buffer (Chen 74): Mean Residue Ellipticity at 222 nm; for % Helicity (Buffer) (Greenfield 69): from [q]208 nm, methodology of Greenfield et al. 1969; for % Helicity (Buffer) (Chen 74): from [q]222 nm, methodology of Chen et al. 1974. The format is physicochemical. As to the method: Far UV CD spectra were acquired for peptides at 20 µM in buffer and in the presence of DMPC or 2∶1 DMPC:DMPG LUVs at 1 mol% peptide/phospholipids. Peptides presented different degrees of secondary structures upon LUVs addition. […] Following the addition of LUVs, some peptides changed conformation resulting in spectral features characteristic of α-helical structures.
Experiments were conducted on a Jasco-J810 spectropolarimeter (Jasco International Co., Japan). Spectra were acquired at room temperature from 194 to 260 nm as an average of 4 readings using a 0.1 cm path length cell, data pitch of 0.2 nm and a response time of 0.5 s. Data Scans of buffer and 2 mM DMPC and 2∶1 DMPC:DMPG LUVs solutions were acquired and subtracted from each peptide data. Peptides were scanned at a concentration of 20 µM in buffer and then 100 fold excess of DMPC and 2∶1 DMPC:DMPG LUVs were added, resulting in a molar ratio of 0.01 peptide/phospholipids. […] Proximity to equilibrium was verified by scanning peptides added with twice the LUVs concentration, approximately 4 mM.
In general terms: CD spectra are sensitive to the conformation of chiral molecules.

Series [5] relates to Staphylococcus aureus ATCC 29313. The format is cell-based. The settings on record: for MIC, Staphylococcus aureus: Mueller-Hinton broth, serial 2-fold dilutions, inoculum ~10^5 CFU/mL, highest 256 µg/mL, 12 h, OD600, NDA = Non-detectable activity; for 1/(log(MICs (mM)), Staphylococcus aureus): from MIC, 0 where no detectable activity. As to the method: (§1) MICs were determined using the M7-A6 protocol from the Clinical Laboratory Standards Institute (CLSI). Escherichia coli ATCC 25922, Pseudomonas aeruginosa ATCC 27853, Staphylococcus aureus ATCC 29313 were streaked in Mueller-Hinton agar, grown overnight at 37°C, transferred to Mueller-Hinton broth and incubated until readings at 600 nm reached the equivalent of 0.5 in the MacFarland scale. […]. Inhibitory assays for X. axonopodis pv. glycines were conducted by the same methodology with longer incubation time (48 h).

Series [6] relates to Pseudomonas aeruginosa ATCC 27853. In kind it is cell-based. The settings on record: for MIC, Pseudomonas aeruginosa: Mueller-Hinton broth, serial 2-fold dilutions, inoculum ~10^5 CFU/mL, highest 256 µg/mL, 12 h, OD600, NDA = Non-detectable activity; for 1/(log(MICs (mM)), Pseudomonas aeruginosa): from MIC, 0 where no detectable activity. As to the method:
as §1

In series [7] the test system is Escherichia coli ATCC 25922. The format is cell-based. The following applies: for MIC, Escherichia coli: Mueller-Hinton broth, serial 2-fold dilutions, inoculum ~10^5 CFU/mL, highest 256 µg/mL, 12 h, OD600, NDA = Non-detectable activity; for 1/(log(MICs (mM)), Escherichia coli): from MIC, 0 where no detectable activity. As to the method:
as §1

On to “RWRFLRKISSVHMFSVKALDDFRQL [Gm0025x00667(75–100), novel IAP, fragment of the G. max enzyme flavonoid 3-hydroxylase]”, for which the “concentration that inhibited the in vitro growth of X. axonopodis pv. glycines” value in series [1] (in vitro growth) was 5 µM. The infected area entry in series [2] is on record as “approximately 50 % of the control”.
For “MIKAFKEATKVDKVVVLWTA [gb|ABM17058.1|(213–231), IAP, fragment of G. max D-myo-inositol 3-phosphate synthase; expressed in transformed soybean lineages 72.14.5 and 72.14.9]”, the “number of uredia per foliar area” value in series [3] (transformed G. max lineage 72.14.5, V3 stage) is reported as 7±3 pustules/cm^2; in series [3] (transformed G. max lineage 72.14.9, V3 stage) it was 12±3 pustules/cm^2.
For “SLWKNLSRKISGAVKAQPDLHTLLPLPGS [Q9XEY7(120–148)]”, in series [4], the “[q]208 nm Buffer (Greenfield 69)” value was -11377, the “[q]222 nm Buffer (Chen 74)” value is -2931, the “% Helicity (Buffer) (Greenfield 69)” value was 25.4% and the “% Helicity (Buffer) (Chen 74)” value is 8.3%. Besides, in series [5], the “MIC, Staphylococcus aureus” value was “NDA” and the “1/(log(MICs (mM)), Staphylococcus aureus)” value came out at 0. Moreover, in series [6], the “MIC, Pseudomonas aeruginosa” value is “NDA” and the “1/(log(MICs (mM)), Pseudomonas aeruginosa)” value turned out to be 0. In series [7], the “MIC, Escherichia coli” value is “NDA” and the “1/(log(MICs (mM)), Escherichia coli)” value is 0. Further, in series [1], the “1/(log(MICs (mM)), Xanthomonas axonopodis pv. glycines)” value was 0 and the “MIC, Xanthomonas axonopodis pv. glycines” value is given as “NDA”.
Regarding FKALRALRLEDLRIPTSYIK [A3KLW0(117–136)], in series [4], the “[q]208 nm Buffer (Greenfield 69)” value is given as -11457, the “[q]222 nm Buffer (Chen 74)” value was -3442, the “% Helicity (Buffer) (Greenfield 69)” value worked out at 25.7% and the “% Helicity (Buffer) (Chen 74)” value was found to be 9.8%. Besides, in series [5], the “MIC, Staphylococcus aureus” value is reported as “NDA” and the “1/(log(MICs (mM)), Staphylococcus aureus)” value was 0. Also, in series [6], the “MIC, Pseudomonas aeruginosa” value is recorded as “NDA” and the “1/(log(MICs (mM)), Pseudomonas aeruginosa)” value was determined as 0. Further, in series [7], the “MIC, Escherichia coli” value is listed as “NDA” and the “1/(log(MICs (mM)), Escherichia coli)” value was determined as 0. Besides, in series [1], the “1/(log(MICs (mM)), Xanthomonas axonopodis pv. glycines)” value was 0 and the “MIC, Xanthomonas axonopodis pv. glycines” value is “NDA”.
Regarding “GLWQIFSSKEEGKDNSQQKSKGDQAKEL [gb|ACU24018.1|(73–101)]”, in series [4], the “[q]208 nm Buffer (Greenfield 69)” value is reported as -7591, the “[q]222 nm Buffer (Chen 74)” value is -2129, the “% Helicity (Buffer) (Greenfield 69)” value was 12.4% and the “% Helicity (Buffer) (Chen 74)” value worked out at 6%. For the same sequence, in series [5], the “MIC, Staphylococcus aureus” value is on record as “NDA” and the “1/(log(MICs (mM)), Staphylococcus aureus)” value came out at 0. Further, in series [6], the “MIC, Pseudomonas aeruginosa” value is reported as “NDA” and the “1/(log(MICs (mM)), Pseudomonas aeruginosa)” value is listed as 0. Also, in series [7], the “MIC, Escherichia coli” value is listed as “NDA” and the “1/(log(MICs (mM)), Escherichia coli)” value was 0. In series [1], the “1/(log(MICs (mM)), Xanthomonas axonopodis pv. glycines)” value stood at 0 and the “MIC, Xanthomonas axonopodis pv. glycines” value is listed as “NDA”.

These data come from paper PMC3461044, “Probing Protein Sequences as Sources for Encrypted Antimicrobial Peptides” (PLoS ONE, 2012).
